Values joined by “and” are separate entries in the source; they are usually repeats but may differ in a detail not shown here. Equal entries are not always repeated.
Assays:
VUP melanoma cell line [1] = assay: Adhesion assay: [51Cr]-VUP cells to laminin; type: cell-based
Experimental: (§1) RGD peptides were plated at a maximum concentration of 200 μM and a minimum concentration of 2 nM. For each RGD peptide sequence, linear peptides (A), cyclic peptides (B), and 4-[^19F]-fluorobenzoyl cyclic peptides (C) were assayed. Each RGD peptide concentration was performed in quadruplicate and each experiment was repeated twice.
(§2) Plastic 96-well plates (Falcon 3912; Becton Dickinson) were coated with 50 μl substrate (10 μg/ml laminin or 5 μg/ml vitronectin). The plates were incubated at 37° C. in an 8% CO2 atmosphere for 1 hour. Unbound protein was flicked off and the plates were washed with phosphate buffered saline (PBS) and blocked with bovine serum albumin (0.1% w/v BSA)/PBS/0.1% sodium azide) for 1 hour. The plates were then washed with PBS, placed on a bed of ice and 25 μl of peptide was added to the wells.
(§3) Sodium [^51Cr] chromate was purchased from Amersham International, UK. The solution was made isotonic by the addition of 110 μl 10× Hanks buffered salt solution. 100 μl of this solution (3.7 MBq) was added to 5-10×10^6 cells in 500 μl of serum-containing growth medium. The suspension was incubated at 37° C. for 45 minutes with regular agitation to resuspend the cells. The cells were then washed and spun 3 times with serum-free E4 medium to remove any free [^51Cr]chromium. A trypan blue viability count was performed and the cells were diluted to the necessary volume in serum-free E4 medium (4×10^5 cells/ml).
25 μl (about 10,000 cells) were added to each quadruplicate well and the plates incubated at 37° C. in an 8% CO2 atmosphere for 1 hour. Unbound cells were flicked off and the plates were washed twice with PBS/BSA containing 1 mM CaCl2 and 0.5 mM MgCl2. The plates were dabbed dry and cut into individual wells. The radioactivity associated with each well was determined in a gamma counter (1261 Multigamma; Wallac, Sweden). Quadruplicate 25 μl samples of labeled cells were counted as 100% input values. To determine non-specific binding, the ability of cells to bind BSA-coated wells was also assessed. […]
(§4) The results were calculated as follows: [formula] […]

A375M melanoma cell line [2] = assay: Adhesion assay: [51Cr]-A375M cells to laminin; type: cell-based, human
Experimental: as §1, §2, §3
25 μl (about 10,000 cells) were added to each quadruplicate well and the plates incubated at 37° C. in an 8% CO2 atmosphere for 1 hour. Unbound cells were flicked off and the plates were washed twice with PBS/BSA containing 1 mM CaCl2 and 0.5 mM MgCl2. The plates were dabbed dry and cut into individual wells. The radioactivity associated with each well was determined in a gamma counter (1261 Multigamma; Wallac, Sweden). Quadruplicate 25 μl samples of labeled cells were counted as 100% input values. To determine non-specific binding, the ability of cells to bind BSA-coated wells was also assessed. Data for these wells are referred to as background.
The results were calculated as follows: [formula] [formula] NMR Spectroscopy of RGD Peptides
The A375M and VUP melanoma cell lines were used with vitronectin and laminin as substrates. Peptides were titrated in 10-fold dilutions from 200 μM to 2 nM. All data were normalized to the absence of peptide, which corresponded to 100% adhesion. All titrations were performed in quadruplicate and each experiment was repeated at least twice.

αvβ3 integrin = target: T1, αvβ3 integrin (Homo sapiens, UniProt P05106+P06756); assay: ELISA: soluble αvβ3-mFc binding to immobilized 50 kDa fibronectin fragment in the presence of RGD peptides
T1 construct: chimeras comprising the extracellular domain of αvβ3, αvβ5, α5β1, and αIIbβ3 linked to the Fc domain of either mouse IgG; purchased Celltech plc (supplied, no catalogue number)
From the text: (§5) Four different soluble integrins were supplied by Celltech plc. Soluble forms of αvβ3, αvβ5, α5β1, and αIIbβ3 integrin were generated by constructing chimeras comprising the extracellular domain of αvβ3, αvβ5, α5β1, and αIIbβ3 linked to the Fc domain of either mouse IgG (αvβ3-mFc, αvβ5-mFc, and αIIbβ3-mFc) or human IgG (α5β1-hFc) as described by Stephens et al., Cell Adhes. Commun., 7:377-390 (2000) and Coe et al., J. Biol. Chem., 276:35854-35866 (2001). Since the four soluble integrin chimeras were supplied either as purified proteins (αvβ3-mFc and α5β1-hFc) or as unpurified hybridoma supernatants (αIIbβ3-mFc and αvβ5-mFc), it was necessary to use two types of ELISAs. […] In one type of ELISA (FIGS. 2A and 2B), the immobilized component is a 50 kDa fragment of fibronectin. In the second type of ELISA (FIGS. 2C and 2D), the immobilized component is a goat anti-mFc antibody that is used to capture chimeric proteins so that the RGD binding site of the integrin is maximally exposed. Each three-sided box in FIG. 2 represents a single well of a 96-well plate, and the components are listed in the sequence of their addition to the assay. The immobilized component at the bottom of the well is bound to the well by electrostatic interactions.
The plates were washed with PBS using a Denley Wellwash 4 Mk 2. Washing was repeated twice with a 400 μl wash per well. […] Plates were read using a plate spectrophotometer at 630 nm.
(§6) Two negative and two positive controls were used in both types of ELISAs.
(§7) FIGS. 3-6 illustrate the percent binding of the vitronectin, fibronectin, or fibrinogen ligand to αvβ5, α5β1, αIIbβ3, or αvβ3 integrin in the presence of RGD peptides (i.e., linear (A), cyclic (B), or 4-[^19F]-fluorobenzoyl cyclic (C)) at different concentrations, with 100% maximum signal being the signal obtained in the absence of the peptide.

α5β1 integrin = target: T2, α5β1 integrin (Homo sapiens, UniProt P05556+P08648); assay: ELISA: soluble α5β1-hFc binding to immobilized 50 kDa fibronectin fragment in the presence of RGD peptides
T2 construct: chimeras comprising the extracellular domain of αvβ3, αvβ5, α5β1, and αIIbβ3 linked to the Fc domain of either mouse IgG; purchased Celltech plc (supplied, no catalogue number)
From the text: as §5
To analyze the affinity and selectively of RGD peptides for αvβ3 and α5β1, 96-well ELISA plates were coated with 100 μl of a 5 μg/ml of the 50 kDa fragment of fibronectin in PBS per well and left overnight at 4° C. The plates were washed with PBS using a Denley Wellwash 4 Mk 2. Washing was repeated twice with a 400 μl wash per well. 200 μ/well of blocking buffer (i.e., to prevent non-specific binding of proteins) was then added for 1 hour followed by a repeat washing with PBS. RGD peptides were then added at a maximum concentration of 200 μM and a preliminary screen was performed at three concentrations, 200,20, and 2 μM. 100 μl of an RGD peptide was added to each well and each assay was performed in triplicate. Purified soluble αvβ3-mFc or purified α5β1-hFc was diluted to 2 μg/ml and 15 ng/ml, respectively, in conjugate buffer and 100 μl was added to each well. The plates were incubated for 2 hours with shaking using a Luckham R100 Rotatest at approximately 150 rpm. After incubation, the plates were washed with PBS as previously described and a labeled antibody was added. For the αvβ3 assay, a horseradish peroxidase (HRP)-labeled F(ab′)2 fragment of goat anti-mouse IgG Fc was diluted 1:2000 in conjugate buffer and 100 μl was added to each well. For the α5β1 assay, an HRP-labeled F(ab′)2 fragment of goat anti-human IgG Fc was diluted 1:2000 in conjugate buffer and 100 μl was added to each well. Plates were incubated for 30 minutes with shaking followed by 2 washes with PBS. 100 μl of TMB substrate was added to each well and plates were shaken during a 10 minute color development. Plates were read using a plate spectrophotometer at 630 nm.
(§8) Two negative and two positive controls were used in both types of ELISAs. For example, the negative controls were wells that contained 50 μl of an active control peptide, integrin, and biotinylated ligand or 50 μl of the active control peptide and 50 μl of buffer. These negative control wells typically develop little to no color. […] These wells typically develop the maximum amount of color.
as §7

αIIbβ3 integrin = target: T3, αIIbβ3 integrin (Homo sapiens, UniProt P05106+P08514); assay: ELISA: biotinylated fibrinogen binding to captured soluble αIIbβ3-mFc in the presence of RGD peptides
T3 construct: chimeras comprising the extracellular domain of αvβ3, αvβ5, α5β1, and αIIbβ3 linked to the Fc domain of either mouse IgG; purchased Celltech plc (supplied, no catalogue number); host or cells: unpurified hybridoma / tissue culture supernatant from secreting cells
From the text: as §5
The plates were washed with PBS using a Denley Wellwash 4 Mk 2. Washing was repeated twice with a 400 μl wash per well. 200 μl/well of blocking buffer was then added for 1 hour followed by a repeat washing with PBS. 100 μl of tissue culture supernatant from cells secreting soluble αIIbβ3-mFc or αvβ5-mFc, diluted 1:2 in conjugate buffer, was added to each well. […] After incubation, the plates were washed with PBS as described above. 100 μl of neutravidin-peroxidase was added to each well and the plates were incubated for 30 minutes with shaking, followed by two washes with PBS. 100 μl of TMB substrate was added to each well and the plates were shaken during color development. Plates were read using a plate spectrophotometer at 630 nm.
as §6, §7

αvβ5 integrin = target: T4, αvβ5 integrin (Homo sapiens, UniProt P06756+P18084); assay: ELISA: biotinylated vitronectin binding to captured soluble αvβ5-mFc in the presence of RGD peptides
T4 construct: chimeras comprising the extracellular domain of αvβ3, αvβ5, α5β1, and αIIbβ3 linked to the Fc domain of either mouse IgG; purchased Celltech plc (supplied, no catalogue number); host or cells: unpurified hybridoma / tissue culture supernatant from secreting cells
From the text: as §5
To analyze the affinity and selectively of RGD peptides for αIIbβ3 and αvβ5, 96-well ELISA plates were coated with anti-murine Fc antibody at 5 μg/ml in PBS, 100 μl per well and left overnight at 4° C. The plates were washed with PBS using a Denley Wellwash 4 Mk 2. Washing was repeated twice with a 400 μl wash per well. 200 μl/well of blocking buffer was then added for 1 hour followed by a repeat washing with PBS. 100 μl of tissue culture supernatant from cells secreting soluble αIIbβ3-mFc or αvβ5-mFc, diluted 1:2 in conjugate buffer, was added to each well. Plates were incubated with shaking for 1 hour followed by two washes with PBS. 100 μl of an RGD peptide (at concentrations of 200, 20, and 2 μM), followed by either 100 μl of biotinylated fibrinogen (at 1 μg/ml in conjugate buffer) or 100 μl of biotinylated vitronectin (at 2 μg/ml in conjugate buffer) were added to each well and incubated for 2 hours with shaking. After incubation, the plates were washed with PBS as described above. 100 μl of neutravidin-peroxidase was added to each well and the plates were incubated for 30 minutes with shaking, followed by two washes with PBS. 100 μl of TMB substrate was added to each well and the plates were shaken during color development. Plates were read using a plate spectrophotometer at 630 nm.
as §8, §7

A375M melanoma cell line [3] = assay: Adhesion assay: [51Cr]-A375M cells to vitronectin; type: cell-based, human; settings: 20 μM peptide
Experimental: as §1, §2
(§9) Sodium [^51Cr] chromate was purchased from Amersham International, UK. […]
(§10) 25 μl (about 10,000 cells) were added to each quadruplicate well and the plates incubated at 37° C. in an 8% CO2 atmosphere for 1 hour. […] The radioactivity associated with each well was determined in a gamma counter (1261 Multigamma; Wallac, Sweden). Quadruplicate 25 μl samples of labeled cells were counted as 100% input values. To determine non-specific binding, the ability of cells to bind BSA-coated wells was also assessed. […]
as §4

VUP melanoma cell line [4] = assay: Adhesion assay: [51Cr]-VUP cells to vitronectin; type: cell-based; settings: 20 μM peptide
Experimental: as §1, §2, §9, §10, §4

[5] = control peptide, concentration not given
[6] = preliminary screen 2, 20, 200 μM

T1 sequence (P06756 31-992 limits assumed): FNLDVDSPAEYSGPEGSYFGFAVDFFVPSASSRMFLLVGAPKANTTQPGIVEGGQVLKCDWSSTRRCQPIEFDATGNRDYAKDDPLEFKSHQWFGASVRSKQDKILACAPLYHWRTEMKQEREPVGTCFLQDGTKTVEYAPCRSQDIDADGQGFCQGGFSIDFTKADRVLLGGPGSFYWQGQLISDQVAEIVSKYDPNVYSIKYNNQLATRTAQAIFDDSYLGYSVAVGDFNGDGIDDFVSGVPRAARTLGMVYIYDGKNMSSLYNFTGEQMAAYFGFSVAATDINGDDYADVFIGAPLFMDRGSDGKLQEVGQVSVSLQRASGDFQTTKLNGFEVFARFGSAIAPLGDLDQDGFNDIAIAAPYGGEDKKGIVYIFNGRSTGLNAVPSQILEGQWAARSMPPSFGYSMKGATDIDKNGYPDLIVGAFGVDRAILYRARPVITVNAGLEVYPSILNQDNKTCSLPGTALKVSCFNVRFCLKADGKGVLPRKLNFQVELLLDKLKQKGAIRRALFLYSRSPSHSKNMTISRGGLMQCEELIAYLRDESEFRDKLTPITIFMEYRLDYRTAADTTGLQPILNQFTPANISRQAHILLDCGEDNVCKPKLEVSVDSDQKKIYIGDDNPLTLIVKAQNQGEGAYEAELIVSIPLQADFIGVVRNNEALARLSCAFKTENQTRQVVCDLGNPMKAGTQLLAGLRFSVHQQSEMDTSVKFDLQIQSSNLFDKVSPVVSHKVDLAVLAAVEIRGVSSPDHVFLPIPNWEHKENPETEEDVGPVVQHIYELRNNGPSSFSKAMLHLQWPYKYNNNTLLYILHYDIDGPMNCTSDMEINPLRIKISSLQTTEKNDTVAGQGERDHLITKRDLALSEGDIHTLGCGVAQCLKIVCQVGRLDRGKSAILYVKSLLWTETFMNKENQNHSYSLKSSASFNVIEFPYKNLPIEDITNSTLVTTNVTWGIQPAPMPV
T1 sequence (P05106 27-718 limits assumed): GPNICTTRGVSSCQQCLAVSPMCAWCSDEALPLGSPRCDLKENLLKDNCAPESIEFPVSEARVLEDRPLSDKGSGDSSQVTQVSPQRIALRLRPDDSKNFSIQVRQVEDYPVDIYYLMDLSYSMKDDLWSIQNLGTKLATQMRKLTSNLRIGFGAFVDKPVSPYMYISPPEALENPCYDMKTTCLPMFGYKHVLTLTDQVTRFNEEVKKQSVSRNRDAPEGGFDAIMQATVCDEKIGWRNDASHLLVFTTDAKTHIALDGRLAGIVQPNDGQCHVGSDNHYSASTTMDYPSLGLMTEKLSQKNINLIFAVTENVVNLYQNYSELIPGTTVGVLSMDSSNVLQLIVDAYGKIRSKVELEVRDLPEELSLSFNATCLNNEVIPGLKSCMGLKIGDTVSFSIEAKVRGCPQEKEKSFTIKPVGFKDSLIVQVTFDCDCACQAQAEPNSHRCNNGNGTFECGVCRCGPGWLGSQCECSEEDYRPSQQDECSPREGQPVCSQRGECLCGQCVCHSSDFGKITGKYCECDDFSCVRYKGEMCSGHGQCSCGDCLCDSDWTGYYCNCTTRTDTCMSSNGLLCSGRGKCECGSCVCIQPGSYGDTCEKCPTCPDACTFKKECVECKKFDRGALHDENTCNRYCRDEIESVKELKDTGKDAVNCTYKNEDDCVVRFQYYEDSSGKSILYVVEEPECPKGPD
T4 sequence (P06756 31-992 limits assumed): as the sequence (P06756 31-992 limits assumed) above
T4 sequence (P18084 24-719 limits assumed): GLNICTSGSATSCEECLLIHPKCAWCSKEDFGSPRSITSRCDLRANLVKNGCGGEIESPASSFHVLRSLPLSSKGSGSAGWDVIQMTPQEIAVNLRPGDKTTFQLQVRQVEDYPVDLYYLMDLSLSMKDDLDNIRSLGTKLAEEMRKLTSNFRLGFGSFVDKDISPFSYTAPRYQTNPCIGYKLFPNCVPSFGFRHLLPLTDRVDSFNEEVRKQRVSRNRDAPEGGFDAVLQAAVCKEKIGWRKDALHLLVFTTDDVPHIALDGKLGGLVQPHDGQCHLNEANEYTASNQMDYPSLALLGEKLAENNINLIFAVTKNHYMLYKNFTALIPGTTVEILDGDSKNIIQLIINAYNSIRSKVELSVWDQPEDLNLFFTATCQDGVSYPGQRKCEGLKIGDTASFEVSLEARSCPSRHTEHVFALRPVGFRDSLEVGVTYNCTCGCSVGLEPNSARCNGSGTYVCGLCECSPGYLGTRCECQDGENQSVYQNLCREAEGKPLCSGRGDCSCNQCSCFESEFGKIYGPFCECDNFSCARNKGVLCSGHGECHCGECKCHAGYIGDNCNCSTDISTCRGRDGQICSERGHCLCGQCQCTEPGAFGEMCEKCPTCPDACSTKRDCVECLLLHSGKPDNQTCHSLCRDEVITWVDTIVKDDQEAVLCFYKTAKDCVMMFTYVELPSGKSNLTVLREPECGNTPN
T2 sequence (P08648 42-995 limits assumed): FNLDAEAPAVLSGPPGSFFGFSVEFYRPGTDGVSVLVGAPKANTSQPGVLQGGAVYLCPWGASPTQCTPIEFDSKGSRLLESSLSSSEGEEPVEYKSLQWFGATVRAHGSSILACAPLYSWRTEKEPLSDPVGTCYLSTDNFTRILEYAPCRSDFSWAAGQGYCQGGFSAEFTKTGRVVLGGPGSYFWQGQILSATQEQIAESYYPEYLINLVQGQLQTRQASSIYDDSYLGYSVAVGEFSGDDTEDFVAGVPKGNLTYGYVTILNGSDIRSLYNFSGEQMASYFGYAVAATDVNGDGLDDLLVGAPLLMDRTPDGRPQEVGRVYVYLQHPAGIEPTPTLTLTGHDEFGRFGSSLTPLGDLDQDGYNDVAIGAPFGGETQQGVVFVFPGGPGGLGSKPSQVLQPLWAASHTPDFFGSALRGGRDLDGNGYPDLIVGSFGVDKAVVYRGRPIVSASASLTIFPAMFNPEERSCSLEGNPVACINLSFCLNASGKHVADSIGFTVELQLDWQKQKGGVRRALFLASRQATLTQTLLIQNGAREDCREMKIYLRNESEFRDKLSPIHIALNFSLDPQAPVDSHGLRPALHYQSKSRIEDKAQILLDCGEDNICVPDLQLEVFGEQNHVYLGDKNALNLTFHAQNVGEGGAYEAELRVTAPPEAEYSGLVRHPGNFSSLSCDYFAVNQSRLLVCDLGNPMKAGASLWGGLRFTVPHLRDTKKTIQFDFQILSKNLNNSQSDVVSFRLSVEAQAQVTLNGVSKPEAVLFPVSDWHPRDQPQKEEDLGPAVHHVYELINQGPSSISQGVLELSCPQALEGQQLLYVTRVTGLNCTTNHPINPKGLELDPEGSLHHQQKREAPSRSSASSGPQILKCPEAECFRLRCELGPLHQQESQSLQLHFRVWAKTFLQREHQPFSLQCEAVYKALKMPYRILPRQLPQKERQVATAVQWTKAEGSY
T2 sequence (P05556 21-728 limits assumed): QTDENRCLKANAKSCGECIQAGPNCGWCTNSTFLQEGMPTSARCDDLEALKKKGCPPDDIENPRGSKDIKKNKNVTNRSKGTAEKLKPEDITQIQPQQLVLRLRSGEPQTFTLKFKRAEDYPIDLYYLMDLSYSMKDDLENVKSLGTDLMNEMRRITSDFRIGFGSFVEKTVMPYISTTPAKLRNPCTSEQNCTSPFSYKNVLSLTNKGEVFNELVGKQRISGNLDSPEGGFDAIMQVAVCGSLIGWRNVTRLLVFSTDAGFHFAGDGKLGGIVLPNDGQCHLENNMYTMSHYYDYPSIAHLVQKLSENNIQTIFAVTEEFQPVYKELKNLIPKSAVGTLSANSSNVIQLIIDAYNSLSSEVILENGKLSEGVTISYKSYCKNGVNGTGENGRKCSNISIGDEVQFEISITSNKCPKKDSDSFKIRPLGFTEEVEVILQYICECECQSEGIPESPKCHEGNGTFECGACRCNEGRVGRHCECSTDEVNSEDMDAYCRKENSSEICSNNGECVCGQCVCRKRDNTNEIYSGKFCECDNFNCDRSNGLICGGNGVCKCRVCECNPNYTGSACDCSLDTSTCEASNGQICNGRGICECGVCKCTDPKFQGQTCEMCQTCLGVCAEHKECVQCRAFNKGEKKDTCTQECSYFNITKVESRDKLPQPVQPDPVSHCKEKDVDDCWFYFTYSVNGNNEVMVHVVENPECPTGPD

GRGDSP [reference compound]
adhesion of [51Cr]-VUP cells to laminin, normalized to absence of peptide (100%) (VUP melanoma cell line [1]; [5]): 49.29%±2.74% and 43.05%±7.66% | adhesion of [51Cr]-A375M cells to laminin, normalized to absence of peptide (100%) (A375M melanoma cell line [2]; 200 μM peptide): 13.51%±1.25% | adhesion of [51Cr]-A375M cells to laminin, normalized to absence of peptide (100%) (A375M melanoma cell line [2]; [5]): 62.05%±1.88%

H-KPQVTRGDVFTEG-NH2 [A11, linear peptide, reference compound]
effect on fibronectin binding to αvβ3 (αvβ3 integrin; 2 μM): little effect | fibronectin binding to αvβ3, % of the maximum signal (αvβ3 integrin; 20 μM peptide): 58.7% | effect on the binding of fibronectin to α5β1 (α5β1 integrin; [6]): no effect | effect on the binding of fibrinogen to αIIbβ3 (αIIbβ3 integrin; 20 μM): significant effect | effect on the binding of vitronectin to αvβ5 (αvβ5 integrin; [6]): no effect

RGDY(OMe)K [A7]
adhesion of [51Cr]-VUP cells to laminin, normalized to absence of peptide (100%) (VUP melanoma cell line [1]; highest concentration (200 μM)): 64.17%±1.31% | adhesion of [51Cr]-A375M cells to vitronectin, normalized to absence of peptide (100%) (A375M melanoma cell line [3]): 106.99±1.66% | adhesion of [51Cr]-A375M cells to laminin, normalized to absence of peptide (100%) (A375M melanoma cell line [2]; 200 μM peptide): 75.08%±1.53% | adhesion of [51Cr]-VUP cells to vitronectin, normalized to absence of peptide (100%) (VUP melanoma cell line [4]): 78.65%±3.98% | effect on α5β1 binding to fibronectin (α5β1 integrin; 2 μM and 20 μM): little effect | effect on αvβ5 binding to vitronectin (αvβ5 integrin; 2 μM and 20 μM): little effect

RGDY(OMe)KE [C1]
selectivity for αIIbβ3 integrin (αIIbβ3 integrin): high selectivity for αIIbβ3 integrin | fibrinogen binding to αIIbβ3 (αIIbβ3 integrin; 2 nM peptide): 59% | effect on the binding of αIIbβ3 to fibrinogen (αIIbβ3 integrin; nanomolar concentrations): significant effect
